# According to patent US10131652B2, “Pyrimidinyloxy benzene derivatives as herbicides” (E. I. DU PONT DE NEMOURS AND COMPANY, priority 2014, dated 2018):
# Where two headings read alike, the source gives them in different places.
# Experiments:
# Format in all cases: in vivo
# corn (Zea mays) = test: Test F pre-/postemergence plant response; conditions: Zea mays, scale 0 to 100
# Outline: (§1)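 In a greenhouse, compounds carried in a non-phytotoxic surfactant-containing solvent mixture were applied to soil at planting and to young 1- to 4-leaf plants. About two to three weeks (14 to 21 days) afterward, each species was compared with controls and rated visually from 0 to 100.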
# [1] = test system: ragweed (common ragweed, Ambrosia elatior); test: Test F pre-/postemergence plant response; conditions: Ambrosia artemisiifolia, pre-emergence, scale 0 to 100, read-out: Plant response rating, Ragweed
# Outline: as §1
# [2] = test system: Brazilian crabgrass (Digitaria horizontalis); test: Test F pre-/postemergence plant response; conditions: Digitaria horizontalis, scale 0 to 100, read-out: Plant response rating, Crabgrass, Brazil
# Outline: as §1
# [3] = test system: lambsquarters (Chenopodium album); test: Test F pre-/postemergence plant response; conditions: Chenopodium album, pre-emergence, scale 0 to 100, read-out: Plant response rating, Lambsquarters
# Outline: as §1
# [4] = test system: morningglory (Ipomoea coccinea); test: Test F pre-/postemergence plant response; conditions: Ipomoea, pre-emergence, scale 0 to 100, read-out: Plant response rating, Morningglory
# Outline: as §1
# [5] = test system: green foxtail (Setaria viridis); test: Test F pre-/postemergence plant response; conditions: Setaria viridis, pre-emergence, scale 0 to 100, read-out: Plant response rating, Foxtail, Green
# Outline: as §1
# [6] = test system: fall panicum (Panicum dichotomiflorum); test: Test F pre-/postemergence plant response; conditions: Panicum dichotomiflorum, scale 0 to 100, read-out: Plant response rating, Panicum, Fall
# Outline: as §1
# [7] = test system: velvetleaf (Abutilon theophrasti); test: Test B pre-/postemergence plant response; conditions: Abutilon theophrasti, 240 h, 1000 g ai/ha, 0 to 100 scale (0 no effect, 100 complete control), read-out: Plant response rating, Velvetleaf
# Outline: (§2)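 Visual injury scores on a 0–100 scale (100 = complete control) relative to untreated plants, taken about 10 days post-treatment in greenhouse. Treatments were a directed preemergence soil spray and a postemergence spray at one- to two-leaf stage, using surfactant-containing solvent formulation.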
# [8] = test system: morningglory (Ipomoea spp.); test: Test B pre-/postemergence plant response; conditions: Ipomoea, 240 h, 1000 g ai/ha, 0 to 100 scale (0 no effect, 100 complete control), read-out: Plant response rating, Morningglory
# Outline: as §2
# [9] = test system: large (Lg) crabgrass (Digitaria sanguinalis); test: Test B pre-/postemergence plant response; conditions: Digitaria sanguinalis, 240 h, 1000 g ai/ha, 0 to 100 scale (0 no effect, 100 complete control), read-out: Plant response rating, Crabgrass, Large
# Outline: as §2
# [10] = post-emergence, 8 g ai/ha Postemergence
# [11] = post-emergence, 16 g ai/ha Postemergence
# [12] = post-emergence, 31 g ai/ha Postemergence
# [13] = post-emergence, 62 g ai/ha Postemergence
# [14] = post-emergence, 125 g ai/ha Postemergence
# [15] = pre-emergence, 8 g ai/ha Preemergence
# [16] = pre-emergence, 16 g ai/ha Preemergence
# [17] = pre-emergence, 31 g ai/ha Preemergence
# [18] = pre-emergence, 62 g ai/ha Preemergence
# [19] = pre-emergence, 125 g ai/ha Preemergence
compound,measurement,setting,value
"FC(F)c1cc(-c2ccccc2Oc2ncc(Cl)cn2)no1 [Compound 35, 5-chloro-2-[2-[5-(difluoromethyl)-3-isoxazolyl]phenoxy]pyrimidine]","Corn plant response rating (crop injury, 0 = no effect, 100 = complete kill) at 8 g/ha",corn (Zea mays); [10],10%
same,"Corn plant response rating (crop injury, 0 = no effect, 100 = complete kill) at 16 g/ha",corn (Zea mays); [11],10%
same,"Corn plant response rating (crop injury, 0 = no effect, 100 = complete kill) at 31 g/ha",corn (Zea mays); [12],15%
same,"Corn plant response rating (crop injury, 0 = no effect, 100 = complete kill) at 62 g/ha",corn (Zea mays); [13],15%
same,"Corn plant response rating (crop injury, 0 = no effect, 100 = complete kill) at 125 g/ha",corn (Zea mays); [14],20%
same,"Corn plant response rating (crop injury, 0 = no effect, 100 = complete kill) at 8 g/ha",corn (Zea mays); [15],0%
same,"Corn plant response rating (crop injury, 0 = no effect, 100 = complete kill) at 16 g/ha",corn (Zea mays); [16],0%
same,"Corn plant response rating (crop injury, 0 = no effect, 100 = complete kill) at 31 g/ha",corn (Zea mays); [17],30%
same,"Corn plant response rating (crop injury, 0 = no effect, 100 = complete kill) at 62 g/ha",corn (Zea mays); [18],0%
same,"Corn plant response rating (crop injury, 0 = no effect, 100 = complete kill) at 125 g/ha",corn (Zea mays); [19],20%
same,pest or weed control at 8 g/ha,[1]; 8 g ai/ha Preemergence,0%
same,pest or weed control at 16 g/ha,[1]; 16 g ai/ha Preemergence,0%
same,pest or weed control at 31 g/ha,[1]; 31 g ai/ha Preemergence,0%
same,pest or weed control at 125 g/ha,[1]; 125 g ai/ha Preemergence,70%
same,pest or weed control at 62 g/ha,[1]; Preemergence,40%
same,pest or weed control at 8 g/ha,[2]; [10],10%
same,pest or weed control at 16 g/ha,[2]; [11],20%
same,pest or weed control at 31 g/ha,[2]; [12],30%
same,pest or weed control at 62 g/ha,[2]; [13],35%
same,pest or weed control at 125 g/ha,[2]; [14],40%
same,pest or weed control at 8 g/ha,[2]; [15],0%
same,pest or weed control at 16 g/ha,[2]; [16],95%
same,pest or weed control at 31 g/ha,[2]; [17],98%
same,pest or weed control at 62 g/ha,[2]; [18],100%
same,pest or weed control at 125 g/ha,[2]; [19],100%
same,pest or weed control at 8 g/ha,[3]; 8 g ai/ha Preemergence,90%
same,pest or weed control at 16 g/ha,"[3]; 16 g ai/ha, Preemergence",98%
same,pest or weed control at 31 g/ha,"[3]; 31 g ai/ha, Preemergence",100%
same,pest or weed control at 125 g/ha,"[3]; 125 g ai/ha, Preemergence",100%
same,pest or weed control at 62 g/ha,[3]; Preemergence,100%
same,pest or weed control at 8 g/ha,[4]; 8 g ai/ha Preemergence,0%
same,pest or weed control at 16 g/ha,[4]; 16 g ai/ha Preemergence,0%
same,pest or weed control at 31 g/ha,[4]; 31 g ai/ha Preemergence,0%
same,pest or weed control at 125 g/ha,[4]; 125 g ai/ha Preemergence,65%
same,pest or weed control at 62 g/ha,[4]; Preemergence,30%
same,pest or weed control at 8 g/ha,[5]; 8 g ai/ha Preemergence,0%
same,pest or weed control at 16 g/ha,"[5]; 16 g ai/ha, Preemergence",0%
same,pest or weed control at 31 g/ha,"[5]; 31 g ai/ha, Preemergence",30%
same,pest or weed control at 125 g/ha,"[5]; 125 g ai/ha, Preemergence",98%
same,pest or weed control at 62 g/ha,[5]; Preemergence,75%
same,pest or weed control at 8 g/ha,[6]; [10],30%
same,pest or weed control at 16 g/ha,[6]; [11],40%
same,pest or weed control at 31 g/ha,[6]; [12],40%
same,pest or weed control at 62 g/ha,[6]; [13],50%
same,pest or weed control at 125 g/ha,[6]; [14],50%
same,pest or weed control at 8 g/ha,[6]; [15],0%
same,pest or weed control at 16 g/ha,[6]; [16],35%
same,pest or weed control at 31 g/ha,[6]; [17],100%
same,pest or weed control at 125 g/ha,[6]; [19],100%
same,pest or weed control at 62 g/ha,"[6]; pre-emergence, Preemergence",100%
same,pest or weed control at 1000 g/ha,"[7]; post-emergence, Postemergence",100%
same,pest or weed control at 1000 g/ha,"[7]; pre-emergence, Preemergence",100%
same,pest or weed control at 1000 g/ha,"[8]; post-emergence, Postemergence",100%
same,pest or weed control at 1000 g/ha,"[8]; pre-emergence, Preemergence",90%
same,pest or weed control at 1000 g/ha,"[9]; post-emergence, Postemergence",100%
same,pest or weed control at 1000 g/ha,"[9]; pre-emergence, Preemergence",100%
